PubChem BioAssay AID328 (DTP/NCI, 2004)
Values joined by “and” are separate entries in the source; they are usually repeats but may differ in a detail not shown here. Equal entries are not always repeated. Inconclusive results and toxic doses are left out. Rule for the calls: active = survival T/C of 150% or more; inactive = T/C below 125% in these data.

Test system: BDF1 mice, P388 leukemia ip, median survival T/C
Experiment: NCI In Vivo Anticancer Drug Screen. Data for tumor model P388 Leukemia (intraperitoneal) in B6D2F1 (BDF1) mice
Conditions: endpoint: median survival time, higher = longer survival
Outline: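 Compound-treated tumour-bearing mice were compared with vehicle-treated controls. Survival was recorded, and the value is the treated-group measurement divided by the control-group measurement (T/C).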

[1] = dose: 50.0 mg/kg/injection, schedule: Q01DX005 (ip), vehicle: saline with Tween-80
[2] = dose: 100.0 mg/kg/injection, schedule: Q01DX005 (ip), vehicle: saline with Tween-80
[3] = dose: 100.0 mg/kg/injection, schedule: Q01DX009 (ip), vehicle: other
[4] = dose: 100.0 mg/kg/injection, schedule: Q04DX003 (ip), vehicle: other
[5] = dose: 50.0 mg/kg/injection, schedule: Q01DX009 (ip), vehicle: saline with Tween-80
[6] = dose: 100.0 mg/kg/injection, schedule: Q01DX009 (ip), vehicle: saline with Tween-80

Measured: T/C

O=C(CCN1CCCCC1)c1ccc(C(F)(F)F)cc1
inactive: dose: 0.39 mg/kg/injection, schedule: Q01DX009 (ip), vehicle: saline 100 % of control and 116 % of control | dose: 0.78 mg/kg/injection, schedule: Q01DX009 (ip), vehicle: saline 102 % of control and 116 % of control | dose: 1.56 mg/kg/injection, schedule: Q01DX009 (ip), vehicle: saline 100 % of control | dose: 6.25 mg/kg/injection, schedule: Q01DX009 (ip), vehicle: saline with Tween-80 99 % of control

COc1cc2c(cc1OC)-c1cc3cc(OC)c(OC)cc3c(CCC(=O)O)[n+]1CC2
inactive: dose: 75.0 mg/kg/injection, schedule: Q01DX009 (ip), vehicle: Klucel (hydroxypropylcellulose) (HPC) 101 % of control | dose: 150.0 mg/kg/injection, schedule: Q01DX009 (ip), vehicle: Klucel (hydroxypropylcellulose) (HPC) 101 % of control

Clc1nnc(Cl)c(Cl)c1Cl
inactive: dose: 0.22 mg/kg/injection, schedule: Q01DX009 (ip), vehicle: Klucel (hydroxypropylcellulose) (HPC) 100 % of control | dose: 0.22 mg/kg/injection, schedule: Q04DX003 (ip), vehicle: Klucel (hydroxypropylcellulose) (HPC) 100 % of control | dose: 0.45 mg/kg/injection, schedule: Q01DX009 (ip), vehicle: Klucel (hydroxypropylcellulose) (HPC) 91 % of control | dose: 0.45 mg/kg/injection, schedule: Q04DX003 (ip), vehicle: Klucel (hydroxypropylcellulose) (HPC) 118 % of control | dose: 0.9 mg/kg/injection, schedule: Q01DX009 (ip), vehicle: Klucel (hydroxypropylcellulose) (HPC) 91 % of control | dose: 0.9 mg/kg/injection, schedule: Q04DX003 (ip), vehicle: Klucel (hydroxypropylcellulose) (HPC) 104 % of control | dose: 1.3 mg/kg/injection, schedule: Q04DX003 (ip), vehicle: Klucel (hydroxypropylcellulose) (HPC) 104 % of control | dose: 2.0 mg/kg/injection, schedule: Q04DX003 (ip), vehicle: Klucel (hydroxypropylcellulose) (HPC) 113 % of control | dose: 2.8 mg/kg/injection, schedule: Q01DX009 (ip), vehicle: saline 87 % of control | dose: 3.0 mg/kg/injection, schedule: Q04DX003 (ip), vehicle: Klucel (hydroxypropylcellulose) (HPC) 104 % of control

O=S1ON=C(C2CCC(C3=NOS(=O)O3)C2)O1 (centres undefined)
inactive: dose: 25.0 mg/kg/injection, schedule: Q01DX005 (ip), vehicle: saline with Tween-80 97 % of control | [1] 104 % of control | [2] 114 % of control

NNC12CC3CC(CC(C3)C1)C2
inactive: dose: 6.25 mg/kg/injection, schedule: Q01DX009 (ip), vehicle: saline 95 % of control | dose: 6.25 mg/kg/injection, schedule: Q04DX003 (ip), vehicle: saline 102 % of control | dose: 12.5 mg/kg/injection, schedule: Q01DX009 (ip), vehicle: saline 86 % of control | dose: 12.5 mg/kg/injection, schedule: Q04DX003 (ip), vehicle: saline 100 % of control | dose: 25.0 mg/kg/injection, schedule: Q01DX009 (ip), vehicle: saline 86 % of control | dose: 25.0 mg/kg/injection, schedule: Q04DX003 (ip), vehicle: saline 98 % of control | dose: 50.0 mg/kg/injection, schedule: Q04DX003 (ip), vehicle: saline 115 % of control

CC1(C)C2CCC1(C)C(Cl)C2 (centres undefined)
inactive: dose: 100.0 mg/kg/injection, schedule: Q04DX002 (ip), vehicle: saline with Tween-80 100 % of control | dose: 200.0 mg/kg/injection, schedule: Q04DX002 (ip), vehicle: saline with Tween-80 103 % of control | dose: 400.0 mg/kg/injection, schedule: Q04DX002 (ip), vehicle: saline with Tween-80 107 % of control

CNC(=O)c1ccccc1C(O)(c1ccccc1)c1ccccc1
inactive: dose: 100.0 mg/kg/injection, schedule: Q04DX003 (ip), vehicle: Klucel (hydroxypropylcellulose) (HPC) 113 % of control | dose: 200.0 mg/kg/injection, schedule: Q04DX003 (ip), vehicle: Klucel (hydroxypropylcellulose) (HPC) 109 % of control | dose: 400.0 mg/kg/injection, schedule: Q04DX003 (ip), vehicle: Klucel (hydroxypropylcellulose) (HPC) 100 % of control

CC(=O)c1ccc(C(=O)CC(O)(C(F)(F)F)C(F)(F)F)cc1
inactive: dose: 50.0 mg/kg/injection, schedule: Q01DX009 (ip), vehicle: other 104 % of control | dose: 50.0 mg/kg/injection, schedule: Q04DX003 (ip), vehicle: other 90 % of control | [3] 104 % of control | [4] 95 % of control

Cc1cccc2nc(Oc3ccccc3)nc(=O)n12
inactive: [5] 96 % of control | [6] 99 % of control

Nc1ccc(CCc2ccc(Cl)cc2S(=O)(=O)F)c(Cl)c1
inactive: dose: 100.0 mg/kg/injection, schedule: Q01DX009 (ip), vehicle: saline 95 % of control | dose: 200.0 mg/kg/injection, schedule: Q01DX009 (ip), vehicle: saline 91 % of control

Nc1nc(=O)[nH]c(N)c1N=O
inactive: dose: 25.0 mg/kg/injection, schedule: Q04DX003 (ip), vehicle: saline with Tween-80 98 % of control | dose: 50.0 mg/kg/injection, schedule: Q04DX003 (ip), vehicle: saline with Tween-80 107 % of control | dose: 100.0 mg/kg/injection, schedule: Q04DX003 (ip), vehicle: saline with Tween-80 100 % of control | dose: 200.0 mg/kg/injection, schedule: Q04DX003 (ip), vehicle: saline with Tween-80 100 % of control | dose: 400.0 mg/kg/injection, schedule: Q04DX003 (ip), vehicle: saline with Tween-80 102 % of control

CC(C)(C)c1ccc(/C(N)=N/O)cc1
inactive: [1] 92 % of control | [2] 101 % of control

CC(=O)c1ccc(NC(=O)N(CCCl)N=O)cc1
inactive: dose: 0.29 mg/kg/injection, schedule: Q04DX003 (ip), vehicle: Klucel (hydroxypropylcellulose) (HPC) 118 % of control | dose: 0.43 mg/kg/injection, schedule: Q04DX003 (ip), vehicle: Klucel (hydroxypropylcellulose) (HPC) 113 % of control | dose: 56.25 mg/kg/injection, schedule: Q04DX003 (ip), vehicle: Klucel (hydroxypropylcellulose) (HPC) 109 % of control | dose: 75.0 mg/kg/injection, schedule: Q04DX003 (ip), vehicle: Klucel (hydroxypropylcellulose) (HPC) 122 % of control
active: dose: 0.99 mg/kg/injection, schedule: Q04DX003 (ip), vehicle: saline 150 % of control | dose: 18.75 mg/kg/injection, schedule: Q04DX003 (ip), vehicle: Klucel (hydroxypropylcellulose) (HPC) 218 % of control | dose: 24.75 mg/kg/injection, schedule: Q04DX003 (ip), vehicle: Klucel (hydroxypropylcellulose) (HPC) 204 % of control
236 % of control and 90 % of control: dose: 37.5 mg/kg/injection, schedule: Q04DX003 (ip), vehicle: Klucel (hydroxypropylcellulose) (HPC)

O=C(CC(O)(C(F)(F)F)C(F)(F)F)c1ccc(Br)cc1
inactive: [3] 91 % of control | [4] 120 % of control | dose: 200.0 mg/kg/injection, schedule: Q01DX009 (ip), vehicle: other 91 % of control | dose: 200.0 mg/kg/injection, schedule: Q04DX003 (ip), vehicle: other 110 % of control | dose: 400.0 mg/kg/injection, schedule: Q01DX009 (ip), vehicle: other 91 % of control | dose: 400.0 mg/kg/injection, schedule: Q04DX003 (ip), vehicle: other 120 % of control

N#Cc1c(Cl)c(Cl)c(OC(=O)c2ccc(Cl)c(Cl)c2)c(Cl)c1Cl
inactive: [5] 117 % of control | [6] 108 % of control | dose: 200.0 mg/kg/injection, schedule: Q01DX009 (ip), vehicle: saline with Tween-80 94 % of control
